In ChEMBL document CHEMBL6153040, “Discovery of the salicylaldehyde-based compound DDO-02267 as a lysine-targeting covalent inhibitor of ALKBH5” (Eur J Med Chem, 2025):
Activity calls are given as the source filed them. No cut-off for these calls is given here.

Assays:
[1] = target: T1, RNA demethylase ALKBH5 (Homo sapiens, UniProt Q6P6C2); assay: Binding affinity to ALKBH5 (66 to 292 residues) (unknown origin) extracted from Escherichia coli BL21 (DE3) cells assessed as dissociation constant incubated for 4 hrs by MST analysis
Target sequence in this assay (Q6P6C2 whole entry, the tested form may be a part): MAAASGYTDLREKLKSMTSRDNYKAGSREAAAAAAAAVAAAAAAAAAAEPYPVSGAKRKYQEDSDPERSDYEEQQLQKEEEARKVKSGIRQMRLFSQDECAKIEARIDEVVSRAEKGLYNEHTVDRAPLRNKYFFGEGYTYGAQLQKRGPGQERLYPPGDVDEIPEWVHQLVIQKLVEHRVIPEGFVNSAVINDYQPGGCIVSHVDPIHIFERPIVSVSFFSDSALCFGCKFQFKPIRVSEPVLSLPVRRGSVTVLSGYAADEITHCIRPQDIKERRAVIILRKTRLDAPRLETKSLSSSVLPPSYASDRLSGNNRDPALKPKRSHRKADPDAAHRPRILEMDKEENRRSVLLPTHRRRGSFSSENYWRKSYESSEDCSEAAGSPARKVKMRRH

[2] = target: T1, RNA demethylase ALKBH5; assay: Inhibition of ALKBH5 (66 to 292 residues) (unknown origin) extracted from Escherichia coli BL21 (DE3) cells using m6A ssDNA as substrate assessed as maximum inactivation rate constant (Kinact) measured after 6 hrs by fluorescence polarization assay
Target sequence in this assay (Q6P6C2 2-394 limits assumed): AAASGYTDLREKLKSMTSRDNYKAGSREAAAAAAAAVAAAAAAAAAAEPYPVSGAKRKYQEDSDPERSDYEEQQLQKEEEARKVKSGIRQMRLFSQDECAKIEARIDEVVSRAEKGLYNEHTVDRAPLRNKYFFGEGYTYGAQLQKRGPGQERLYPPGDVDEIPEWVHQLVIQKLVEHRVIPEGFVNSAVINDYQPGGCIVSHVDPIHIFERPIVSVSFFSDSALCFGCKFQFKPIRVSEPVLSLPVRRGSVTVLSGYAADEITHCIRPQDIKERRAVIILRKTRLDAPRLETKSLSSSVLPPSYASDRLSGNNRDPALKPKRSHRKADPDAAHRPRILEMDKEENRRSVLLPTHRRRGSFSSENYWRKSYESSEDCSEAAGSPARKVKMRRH

[3] = target: T1, RNA demethylase ALKBH5; assay: Binding affinity to ALKBH5 (66 to 292 residues) (unknown origin) extracted from Escherichia coli BL21 (DE3) cells assessed as dissociation constant by ITC analysis
Target sequence in this assay (Q6P6C2 whole entry, the tested form may be a part): as the sequence (Q6P6C2 whole entry, the tested form may be a part) above

[4] = target: T2, Alpha-ketoglutarate-dependent dioxygenase alkB homolog 3 (Homo sapiens, UniProt Q96Q83); assay: Inhibition of ALKBH3 (unknown origin) by fluorescence polarization assay
T2 sequence (Q96Q83 whole entry): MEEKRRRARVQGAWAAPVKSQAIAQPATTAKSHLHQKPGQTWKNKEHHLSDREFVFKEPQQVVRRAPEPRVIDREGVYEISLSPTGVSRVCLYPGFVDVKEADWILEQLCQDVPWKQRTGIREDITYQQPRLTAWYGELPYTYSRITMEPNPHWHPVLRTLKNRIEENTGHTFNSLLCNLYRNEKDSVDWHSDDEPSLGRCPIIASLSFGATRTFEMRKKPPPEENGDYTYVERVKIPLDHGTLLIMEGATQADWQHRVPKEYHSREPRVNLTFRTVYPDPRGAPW

[5] = target: T1, RNA demethylase ALKBH5; assay: Induction of thermal stabilization of wild type ALKBH5 (66 to 292 residues) (unknown origin) extracted from Escherichia coli BL21 (DE3) cells assessed as melting temperature by thermal shift assay (reference value: 47.30 degreeC)
Target sequence in this assay (Q6P6C2 2-394 limits assumed): as the sequence (Q6P6C2 2-394 limits assumed) above

[6] = Selectivity ratio of IC50 for FTO (32 to 505 residues) (unknown origin) extracted from Escherichia coli BL21 (DE3) cells to IC50 for ALKBH5 (66 to 292 residues) (unknown origin) extracted from Escherichia coli BL21 (DE3) cells by restriction enzyme digestion assay
[7] = target: T1, RNA demethylase ALKBH5; assay: Inhibition of ALKBH5 (66 to 292 residues) (unknown origin) extracted from Escherichia coli BL21 (DE3) cells using m6A ssDNA as substrate at 1.25 to 10 uM incubated for 2 hrs in presence of 2-OG by TBE-PAGE based restriction enzyme digestion assay; conditions: dose 1.25-10 µM
Target sequence in this assay (Q6P6C2 2-394 limits assumed): as above

[8] = system: MOLM-13; assay: Downregulation of AXL protein expression levels in human MOLM-13 cells at 20 to 80 uM incubated for 72 hrs by Western blot analysis; format: functional, cell-based; conditions: dose 20-80 µM
[9] = target: T1, RNA demethylase ALKBH5; assay: Inhibition of ALKBH5 (66 to 292 residues) (unknown origin) demethylase activity extracted from Escherichia coli BL21 (DE3) cells at 200 uM preincubated for 3 hrs and measured after compound washout by small molecule dilution method
Target sequence in this assay (Q6P6C2 2-394 limits assumed): as above

[10] = system: MOLM-13; assay: Induction of apoptosis in human MOLM-13 cells assessed as necrotic cells at 80 uM incubated for 72 hrs by Annexin V FITC/PI staining based flow cytometry analysis (reference value: 1.75 %); format: functional
[11] = target: T1, RNA demethylase ALKBH5; assay: Inhibition of ALKBH5 (66 to 292 residues) (unknown origin) extracted from Escherichia coli BL21 (DE3) cells using m6A ssDNA as substrate at 5 uM incubated for 2 hrs by TBE-PAGE based restriction enzyme digestion assay
Target sequence in this assay (Q6P6C2 2-394 limits assumed): as above

[12] = system: MOLM-13; assay: Induction of cell cycle arrest in human MOLM-13 cells assessed as accumulation of cells at G0/G1 phase at 40 uM incubated for 72 hrs by flow cytometry analysis (reference value: 65.53 %); format: functional
[13] = system: MOLM-13; assay: Induction of apoptosis in human MOLM-13 cells assessed as early apoptotic cells at 40 uM incubated for 72 hrs by Annexin V FITC/PI staining based flow cytometry analysis (reference value: 4.32%); format: functional
[14] = target: T1, RNA demethylase ALKBH5; assay: Induction of thermal stabilization of ALKBH5 in human MOLM-13 cells at 20 uM incubated for 30 min and measured after 3 mins incubation under 45 to 65 degreeC by […] assay; format: cell-based; conditions: time 33.0 min
Target sequence in this assay (Q6P6C2 2-394 limits assumed): as above

[15] = target: T1, RNA demethylase ALKBH5; assay: Inhibition of ALKBH5 (66 to 292 residues) (unknown origin) extracted from Escherichia coli BL21 (DE3) cells using m6A ssDNA as substrate measured after 40 mins by fluorescence polarization assay
Target sequence in this assay (Q6P6C2 whole entry, the tested form may be a part): as the sequence (Q6P6C2 whole entry, the tested form may be a part) above

[16] = target: Alpha-ketoglutarate-dependent dioxygenase FTO (Homo sapiens, UniProt Q9C0B1); assay: Inhibition of FTO (32 to 505 residues) (unknown origin) extracted from Escherichia coli BL21 (DE3) cells using m6A ssDNA as substrate incubated for 2 hrs by TBE-PAGE based restriction enzyme digestion assay
[17] = target: T1, RNA demethylase ALKBH5; assay: Inhibition of ALKBH5 (66 to 292 residues) (unknown origin) extracted from Escherichia coli BL21 (DE3) cells using m6A ssDNA as substrate measured after 180 mins by fluorescence polarization assay
Target sequence in this assay (Q6P6C2 whole entry, the tested form may be a part): as above

[18] = Selectivity ratio of IC50 for FTO (32 to 505 residues) (unknown origin) extracted from Escherichia coli BL21 (DE3) cells to IC50 for ALKBH5 (66 to 292 residues) (unknown origin) extracted from Escherichia coli BL21 (DE3) cells by fluorescence polarization assay
[19] = target: T1, RNA demethylase ALKBH5; assay: Binding affinity to ALKBH5 (66 to 292 residues) (unknown origin) extracted from Escherichia coli BL21 (DE3) cells assessed as dissociation constant incubated for 3 hrs by MST analysis
Target sequence in this assay (Q6P6C2 whole entry, the tested form may be a part): as above

[20] = target: T1, RNA demethylase ALKBH5; assay: Inhibition of ALKBH5 (66 to 292 residues) (unknown origin) extracted from Escherichia coli BL21 (DE3) cells using m6A ssDNA as substrate assessed as inactivation constant (Ki) measured after 6 hrs by fluorescence polarization assay
Target sequence in this assay (Q6P6C2 whole entry, the tested form may be a part): as above

[21] = target: T1, RNA demethylase ALKBH5; assay: Binding affinity to ALKBH5 (66 to 292 residues) (unknown origin) extracted from Escherichia coli BL21 (DE3) cells assessed as dissociation constant incubated for 1.5 hrs by MST analysis
[22] = system: MOLM-13; assay: Induction of apoptosis in human MOLM-13 cells assessed as viable cells at 80 uM incubated for 72 hrs by Annexin V FITC/PI staining based flow cytometry analysis (reference value: 89.65%); format: functional; conditions: read-out: Activity
[23] = system: RNA demethylase ALKBH5 (Homo sapiens), Q6P6C2 [K132E]; assay: Inhibition of ALKBH5 K132E mutant (66 to 292 residues) (unknown origin) extracted from Escherichia coli BL21 (DE3) cells using m6A ssDNA as substrate at 0.5 to 100 uM incubated for 2 hrs by restriction enzyme digestion assay; conditions: dose 0.5-100 µM
[24] = system: MOLM-13; assay: Induction of cell cycle arrest in human MOLM-13 cells assessed as accumulation of cells at G0/G1 phase at 80 uM incubated for 72 hrs by flow cytometry analysis (reference value: 65.53 %); format: functional
[25] = target: T1, RNA demethylase ALKBH5; assay: Inhibition of ALKBH5 (66 to 292 residues) (unknown origin) extracted from Escherichia coli BL21 (DE3) cells using m6A ssDNA as substrate measured after 1 hrs by fluorescence polarization assay

Chain of RNA demethylase ALKBH5 (Homo sapiens), Q6P6C2 [K132E] (Q6P6C2 whole entry K132E, the tested form may be a part): as the sequence (Q6P6C2 whole entry, the tested form may be a part) above, with K132E counted along it
Chain of Alpha-ketoglutarate-dependent dioxygenase FTO (Q9C0B1 whole entry, the tested form may be a part): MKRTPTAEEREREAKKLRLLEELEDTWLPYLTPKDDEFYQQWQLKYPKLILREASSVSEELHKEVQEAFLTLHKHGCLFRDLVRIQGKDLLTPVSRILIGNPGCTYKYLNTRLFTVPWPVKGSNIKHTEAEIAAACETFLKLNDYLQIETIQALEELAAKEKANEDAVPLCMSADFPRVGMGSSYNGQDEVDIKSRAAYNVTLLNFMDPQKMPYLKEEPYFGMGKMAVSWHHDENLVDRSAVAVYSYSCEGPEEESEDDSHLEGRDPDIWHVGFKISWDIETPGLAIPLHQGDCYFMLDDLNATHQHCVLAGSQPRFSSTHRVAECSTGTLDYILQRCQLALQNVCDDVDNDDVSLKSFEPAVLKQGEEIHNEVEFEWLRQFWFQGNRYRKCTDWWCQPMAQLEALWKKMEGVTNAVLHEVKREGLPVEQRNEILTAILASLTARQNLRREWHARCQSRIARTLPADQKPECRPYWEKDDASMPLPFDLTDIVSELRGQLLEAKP

Question: Which Kd [1] does the source give for `O=Cc1cc(S(=O)(=O)NC(=O)c2cc(C(=O)O)ccn2)c2ccccc2c1O` here?
Answer: 650 nM

Question: And the Kinact [2]?
Answer: 14.2 min⁻¹

Question: What about the Kd [3] of the same compound?
Answer: 2800 nM

Question: What about the IC50 [4] of the same compound?
Answer: 11700 nM

Question: What about the Tm [5] of the same compound?
Answer: 49.9 °C

Question: What about the Ratio IC50 [6] of the same compound?
Answer: 10

Question: What about the inhibition [7] of the same compound?
Answer: Active

Question: What about the Activity [8] of the same compound?
Answer: Active

Question: What about the inhibition [9] of the same compound?
Answer: Active

Question: And the Activity [10]?
Answer: 1.2%

Question: And the inhibition [11]?
Answer: Active

Question: And the Activity [12]?
Answer: 68.23%

Question: What about the Activity [13] of the same compound?
Answer: 10.4%

Question: What about the Activity [14] of the same compound?
Answer: Active

Question: What about the IC50 [15] of the same compound?
Answer: 580 nM

Question: What about the IC50 [16] of the same compound?
Answer: 19700 nM

Question: And the IC50 [17]?
Answer: 280 nM

Question: And the Ratio IC50 [18]?
Answer: 20

Question: What about the Kd [19] of the same compound?
Answer: 1030 nM

Question: And the Ki [20]?
Answer: 410 nM

Question: And the Kd [21]?
Answer: 1140 nM

Question: What about the viability at 80 µM [22] of the same compound?
Answer: 77.6%

Question: And the inhibition [23]?
Answer: inactive

Question: What about the Activity [24] of the same compound?
Answer: 73.67%

Question: And the IC50 [25]?
Answer: 480 nM
